In US11096975B2, “Compositions for use in the treatment of tumors resistant to chemotherapy” (PROBIOTICAL S.P.A., priority 2015, dated 2021):

Experiments:
[1] = system: MDA-MB-231 (breast adenocarcinoma); test: Cell viability of chemoresistant MDA-MB-231 cells (Tables 1, 2, 4)
Text: (§1) The activity of the association of at least one flavonoid with synthetic chemotherapeutic agents (cyclophosphamide/methotrexate) and/or arctigenin, arctiin, berberine, berbamine, sanguinarine and chelerythrine (indicated with the term “Extracts” in the Tables) was studied in resistant cell lines of adenocarcinomas and carcinomas in comparison with chemosensitive tumour cell lines and line cells.
(§2) In particular, chemoresistant human tumour cells MDA-MB-231 (breast adenocarcinoma), ECV-304 (bladder carcinoma), HuH-7 (hepatocellular carcinoma) and HTB-43 (squamous cell carcinoma of the pharynx), chemosensitive tumour cells MCF-7 (breast adenocarcinoma) and non-tumoral healthy human mammal fibroblasts (HMF) were used.

[2] = in vitro; details: human
Text: as §1, §2

[3] = system: MDA-MB-231 cells; test: Cell viability of MDA-MB-231 cells after 7 days of treatment (Tables 7-9); type: cell-based, human
[4] = system: MCF-7 (breast adenocarcinoma); test: Cell viability of chemosensitive MCF-7 cells (Table 1); details: Homo sapiens, MCF7, read-out: Cell viability (%) MCF-7
Text: as §1, §2

[5] = system: healthy human mammal fibroblasts (HMF); test: Cell viability of non-tumoral healthy fibroblasts HMF (Table 1); details: control = 100
Text: as §1, §2

[6] = system: ECV-304 (bladder carcinoma); test: cells; details: Homo sapiens, ECV-304, read-out: Cell viability (%) ECV-304
Text: as §1, §2

[7] = system: HTB-43 (squamous cell carcinoma of the pharynx); test: cells; details: Homo sapiens, read-out: Cell viability (%) HTB-43
Text: as §1, §2

[8] = system: HuH-7 (hepatocellular carcinoma); test: cells; details: Homo sapiens, Huh-7, read-out: Cell viability (%) HuH-7
Text: as §1, §2

[9] = Homo sapiens, MDA-MB-231, read-out: Cell viability (%) MDA-MB-231

O=c1c(O)c(-c2ccc(O)c(O)c2)oc2cc(O)cc(O)c12 [Quercetin, quercetin]
viability at 20 µM [1, 9]: 91% | viability at 50 µM [1, 9]: 81% | viability at 100 µM [1, 9]: 76% | Synergistic effect in association with cyclophosphamide ([1]; MDA-MB-231 cells, alone or with cyclophosphamide 850 ng/mL): absence of synergistic effects

C[C@@H]1O[C@@H](OC[C@H]2O[C@@H](Oc3c(-c4ccc(O)c(O)c4)oc4cc(O)cc(O)c4c3=O)[C@H](O)[C@@H](O)[C@@H]2O)[C@H](O)[C@H](O)[C@H]1O [Rutin, 2-(3,4-dihydroxyphenyl)-4,5-dihydroxy-3-{3,4,5-trihydroxy-6-[(3,4,5-trihydroxy-6-methyl-oxan-2-yl)oxymethyl}oxan-2-yl]oxy-chromen-7-one]
viability at 20 µM [2]: 92% | viability at 50 µM [2]: 88% | viability at 100 µM [2]: 86% | Effect on cell viability of adding the flavonoid to cyclophosphamide 20 μM+methotrexate 2 μM ([3]; 20 μM of rutin, MDA-MB-231, 7 days): further reduces cell viability | Effect on cell viability of adding the flavonoid to cyclophosphamide 40 μM+methotrexate 4 μM ([3]; rutin at 100 μM and 50 μM, MDA-MB-231, 7 days): no statistically relevant difference | viability at 20 µM [4]: 8% | viability at 50 µM [4]: 5% | viability at 100 µM [4]: 4% | viability at 20 µM [1, 9]: 66% | viability at 50 µM [1, 9]: 58% | viability at 100 µM [1, 9]: 51%

O=P1(N(CCCl)CCCl)NCCCO1 (stereo not shown) [Cyclophosphamide, cyclophosphamide]
Cell viability (%) HMF ([5]; single agent at 850 ng/mL): 54% | Cell viability (%) HMF ([5]; single agent at 1000 ng/mL): 48% | Cell viability (%) HMF ([5]; single agent at 1300 ng/mL): 42% | viability at 0.85 µg/mL [6]: 70% | viability at 0.85 µg/mL [7]: 36% | viability at 0.85 µg/mL [8]: 58% | viability at 40 µM ([3]; Homo sapiens, MDA-MB-231, 168 h, read-out: Cell viability % (MDA-MB-231, 7 days)): 1.07 ± 0.22% | viability at 0.85 µg/mL [4]: 6.9% | viability at 1 µg/mL [4]: 7.5% | viability at 1.3 µg/mL [4]: 8.6% | viability at 0.85 µg/mL [1, 9]: 96% | viability at 1 µg/mL [1, 9]: 93% | viability at 1.3 µg/mL [1, 9]: 89%
